In assay [1] the test system is iNKT cells. Description: In vivo iNKT cell activation: serum IFNγ by ELISA after i.p. injection. Further details: species or system C57BL/6 mice. The note with it: 200 µg i.p.; blood 16 hours after administration; Figure 7. How it is done: C57BL/6 mice were injected intraperitoneally with 200 µg of natural NGcGM3 ganglioside, NGcGM3 d18:1-C24:1, NGcGM3 d18:1-C 18:0 and 2 µg of αGalCer or vehicle (5.6 % sucrose, 0.75 % L-histidine and 0.5 % Tween-20) and blood was drawn 16 hours after the administration. Serum IFNγ levels were assessed by ELISA as an indirect measure of iNKT cell activation (Mouse IFNy ELISA Ready-SET-Go!, eBioscience).

Assay [2] relates to P3X63 myeloma cells. Description: Subcutaneous P3X63 myeloma tumor growth (tumor volume). Type of assay: in vivo, BALB/c mice. The following applies: day 5. How it is done:
1x10^6 P3X63 cells were implanted subcutaneously into syngeneic BALB/c mice. Animals were randomized, divided into groups of 6-8 and received intraperitoneal treatments with 200 µg NGcGM3 d18:1-C24:1 ganglioside, αGalCer or vehicle (5.6% sucrose solution, 0.75% L-histidine and 0.5% Tween20 0.5%) on days 1, 5 and 9. Tumor diameters were measured with a caliper and tumor volume (TV) was calculated according to the formula: TV (mm^3) = π/6 × major diameter × (minor diameter)^2. […] The individual tumor volume values of the animals in each group and the mean and standard deviation of the mean in each case on day 5 of the experiment are shown. […] Table 1. Percentage distribution of tumor volume of the animals in each group.
1x10^6 P3X63 myeloma cells were implanted subcutaneously into syngeneic BALB/c mice. Animals were randomized, divided into groups of 6-8 and received treatments with vehicle solution (5.6% sucrose, 0.75% L-histidine and 0.5% Tween-20), αGalCer, NGcGM3 d18:1-C24:1 or nanoparticles of OMPC and NGcGM3 d18:1-C24:1 (GlycoVax 24:1) on days 1, 5 and 9.
Subcutaneous tumor diameters were measured every 2-3 days with a caliper and TV was calculated according to the formula: TV (mm^3) = π/6 × major diameter × (minor diameter)^2. […]

Where [3] appears, read: Example 5, Table 1, 1x10^6 P3X63 s.c., i.p. on days 1, 5 and 9 (200 µg NGcGM3 d18:1-C24:1).
The mark [4] stands for this setting: Example 10, Table 2, 1x10^6 P3X63 s.c., treatment on days 1, 5 and 9.

SMILES strings stand for the structures.

As for `CCCCCCCCCCCCCC=CC(O)C(COC1OC(CO)C(OC2OC(CO)C(O)C(OC3(C(=O)O)CC(O)C(NC(=O)CO)C(C(O)C(O)CO)O3)C2O)C(O)C1O)NC(=O)CCCCCCCCCCCCCCCCC` (stereo not shown) [NGcGM3 d18:1-C18:0, reference compound], the “serum IFNγ levels (in vivo activation of iNKT cells)” value in assay [1] is “inactive”.

Regarding `CCCCCCCCCCCCCCCCCCCCCCCCCC(=O)N[C@@H](CO[C@H]1O[C@H](CO)[C@H](O)[C@H](O)[C@H]1O)[C@H](O)[C@H](O)CCCCCCCCCCCCCC` [αGalCer, α-galactosylceramide, reference compound], in assay [2] (setting [3]), the “TV < 36 mm^3 (percentage distribution of tumor volume of the animals)” value is reported as 25% and the “TV > 36 mm^3 (percentage distribution of tumor volume of the animals)” value was 75%. The “growth of subcutaneous tumors” value in assay [2] (Example 5, p<0.001 for NGcGM3 d18:1-C24:1, p<0.05 for αGalCer vs placebo) was “significantly inhibited the growth of subcutaneous tumors”. Further, in assay [2] (setting [4]), the “TV < 36 mm^3 (percentage distribution of tumor volume of animals)” value was 25% and the “TV > 36 mm^3 (percentage distribution of tumor volume of animals)” value is listed as 75%. In addition, the “antitumor effect (inhibition of tumor growth vs control group)” value in assay [2] (Example 10, p=0.0031 NGcGM3 d18:1-C24:1, p=0.0004 GlycoVax 24:1) is on record as “did not show a statistically significant antitumor effect”.
